Usually Kb stands for the affinity of an antagonist, worked out from how it opposes an agonist.

38 molecules from patent US5484780A, “Angiotensin II antagonists” (Eli Lilly and Company, priority 1994, dated 1996) can be followed below.

The target in this test is T1, angiotensin-induced vasoconstriction (rabbit aorta) (Oryctolagus cuniculus, UniProt P34976).
T1 construct: The thoracic aortas were removed and cleaned of excess fat and connective tissue; from tissue; host or cells: thoracic aorta rings of New Zealand white rabbits (animals from Hazelton)
T1 sequence (P34976 1-359): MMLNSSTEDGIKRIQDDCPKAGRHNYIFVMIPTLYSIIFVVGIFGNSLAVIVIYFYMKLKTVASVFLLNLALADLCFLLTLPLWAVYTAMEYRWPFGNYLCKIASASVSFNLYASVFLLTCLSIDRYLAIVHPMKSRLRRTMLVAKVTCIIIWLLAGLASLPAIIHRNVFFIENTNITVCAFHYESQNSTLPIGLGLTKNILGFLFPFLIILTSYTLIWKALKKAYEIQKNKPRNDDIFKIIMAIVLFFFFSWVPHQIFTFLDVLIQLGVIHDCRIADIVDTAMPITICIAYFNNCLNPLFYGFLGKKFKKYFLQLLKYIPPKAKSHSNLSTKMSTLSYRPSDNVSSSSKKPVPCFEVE
Put plainly: Rabbit Aorta Test System: antagonism of angiotensin II contraction of aortic rings. Also noted: species or system New Zealand white rabbits. As to conditions: contraction to AII 10^-10 to 10^-7 M, 30 minutes incubation with compound; pA2 = -log KB. The protocol:
As previously discussed, the compounds of Formula I are potent effective antagonists of angiotensin II. The ability of representative compounds of Formula I to block angiotensin II receptor binding was determined using the adrenal glomerulosa assay. The ability to antagonize angiotensin-induced vasoconstriction was evaluated in the rabbit aorta test system.
New Zealand white rabbits (Hazelton, 2-3 kg) were sacrificed by cervical dislocation. The thoracic aortas were removed and cleaned of excess fat and connective tissue. Rings of tissue (3 mm wide) were mounted in 10 ml tissue baths between 2 L-shaped stainless steel hooks. The lower hook was attached to a stationary rod. The upper hook was attached to a force displacement transducer (Grass model FT.03). The bath chambers were maintained at 37° C., aerated with 95% 02 /5% C02, and contained physiological solution of the following composition (mM): NaCl, 117; glucose, 5.6; NaH2 PO4, 1.0; MgS04, 0.7; KCl, 5.2; CaCl2, 1.8; NaHCO3, 26; and phentolamine HCl, 0.003.
Rings were equilibrated for 1 hour with 2 g of tension. During the equilibration period, the tissues were washed by overflow every 15 minutes. Rings were then exposed to 10^-8 M angiotensin II (AII) and were allowed to contract until a steady state was reached. Tissues were then washed every 15 minutes for 1 hour. This was repeated every hour until the AII response stabilized. A cumulative concentration response curve to AII (10^-10 to 10^-7 M) was then obtained. At the conclusion of the concentration response curve, tissues were washed every 2 minutes until baseline tension was reached, then every 15 minutes for 30 minutes. Compounds were added in a volume of 10 μl DMSO and allowed to incubate for 30 minutes before repeating the concentration response curve to AII. Contractions to AII were expressed as a percent of the maximum contraction obtained in the control curve (the first AII concentration response curve). EC50 's (concentration that contracted the tissues to 1/2 the control maximum) for each curve were calculated using a 4 parameter logistics model (NonLin, SAS Institute). Potency data for each compound tested are expressed as the pA2 (defined as-log KB, where KB =[molar concentration of antagonist]/[(EC50 AII with antagonist/EC50 AII without antagonist)-1]).
For `CCCCCC[C@H](C(=O)N1C[C@@H](Oc2ccc(OCCCC)cc2)C[C@H]1C(=O)O)n1cnc(NC(=O)c2cccc(O)c2C(=O)O)c1` [Example 84], the Kb is 10 nM.
In the case of `CCCCCC[C@H](C(=O)N1C[C@@H](Oc2ccc3oc(C)cc3c2)C[C@H]1C(=O)O)n1cnc(NC(=O)c2ccccc2S(=O)(=O)O)c1` [Example 69], the Kb was 0.501 nM.
Regarding `CCCCCC[C@H](C(=O)N1C[C@@H](Oc2ccc(OCC(C)C)cc2)C[C@H]1C(=O)O)n1cnc(NC(=O)c2ccccc2S(=O)(=O)O)c1` [Example 51], the Kb was 12.6 nM.
Same read-out and setting: then `CCCCCC[C@H](C(=O)N1C[C@@H](Oc2ccc(NS(C)(=O)=O)cc2)C[C@H]1C(=O)O)n1cnc(NC(=O)c2ccccc2S(=O)(=O)O)c1` [Example 92, 1-[1-oxo-2-[4-(2-sulfobenzoyl)amino-1H-imidazol-1-yl]octyl]-4-cis-[(4-N-methanesulfonamido)-phenoxy]-L-proline], with 0.126 nM; and `CCCCCC[C@H](C(=O)N1C[C@@H](Oc2ccc(OCC3CCCCC3)cc2)C[C@H]1C(=O)O)n1cnc(NC(=O)c2ccccc2S(=O)(=O)O)c1` [Example 56], with 31.6 nM.
The same measure, in the same setting: the value for `CCCCCC[C@H](C(=O)N1C[C@@H](Oc2ccc(S(=O)(=O)NC)cc2)C[C@H]1C(=O)O)n1cnc(NC(=O)c2ccccc2S(=O)(=O)O)c1` [Example 40] was 0.501 nM; that for `CCCCCC[C@H](C(=O)N1C[C@@H](Oc2ccc3c(c2)CCC3)C[C@H]1C(=O)O)n1cnc(NC(=O)c2cccc(O)c2C(=O)O)c1` [Example 88] was 6.31 nM.
In the case of `CCCCCC[C@H](C(=O)N1C[C@@H](Oc2ccc(OCC)cc2)C[C@H]1C(=O)O)n1cnc(NC(=O)c2cccc(O)c2C(=O)O)c1` [Example 83], the “Rabbit Aorta (pA2)” value is recorded as 8.9.
For `CCCCCC[C@H](C(=O)N1C[C@@H](Oc2ccon2)C[C@H]1C(=O)O)n1cnc(NC(=O)c2ccccc2S(=O)(=O)O)c1` [Example 74], the Kb is 100 nM.
The same measure, in the same setting: the value for `CCCCCC[C@H](C(=O)N1C[C@@H](Oc2ccc(C#N)cc2)C[C@H]1C(=O)O)n1cnc(NC(=O)c2cccc(O)c2C(=O)O)c1` [Example 87] was 31.6 nM; that for `CCCCCCC(C(=O)N1C[C@@H](Oc2ccccc2)C[C@H]1C(=O)O)n1cnc(NC(=O)c2cccc(O)c2C(=O)O)c1` (single isomer, unassigned) [Example 20, 1-[1-oxo-2-[4-(2-carboxy-3-hydroxybenzoyl)amino-1H-imidazol-1-yl]octyl]-4-cis-phenoxy-L-Proline] was 3.16 nM; that for `CCCCCC[C@H](C(=O)N1C[C@@H](Oc2ccc3sccc3c2)C[C@H]1C(=O)O)n1cnc(NC(=O)c2ccccc2S(=O)(=O)O)c1` [Example 72] was 3.16 nM.
With `CCCCCC[C@H](C(=O)N1C[C@@H](Oc2ccc(CO)cc2)C[C@H]1C(=O)O)n1cnc(NC(=O)c2ccccc2S(=O)(=O)O)c1` [Example 35], the Kb is 2 nM.
For the molecule `CCCCCC[C@H](C(=O)N1C[C@@H](Oc2ccc(C(F)(F)F)cc2)C[C@H]1C(=O)O)n1cnc(NC(=O)c2ccccc2S(=O)(=O)O)c1` [Example 29], the “Rabbit Aorta (pA2)” value is given as 7.5.
Still for that read-out and setting: then `CCCCCCC(C(=O)N1C[C@@H](Oc2ccc(CP(=O)(O)O)cc2)C[C@H]1C(=O)O)n1cnc(NC(=O)c2ccccc2S(=O)(=O)O)c1` (some centres unmarked) [Example 91], with 10.1.
In the case of `O=C(Nc1cn(C(CCCCC(F)(F)F)C(=O)N2C[C@@H](Oc3ccccc3)C[C@H]2C(=O)O)cn1)c1ccccc1S(=O)(=O)O` (stereo partly drawn) [Example 16, 1-[1-Oxo-2-[4-(2-sulfobenzoyl)amino-1H-imidazol-1-yl]-7,7,7-trifluoroheptyl]-4-cis-phenoxy-L-proline], the Kb was 50.1 nM.
The same measure, in the same setting: the value for `CCCCCC[C@H](C(=O)N1C[C@@H](Oc2ccc(CC(=O)N3CCC[C@H]3C(=O)O)cc2)C[C@H]1C(=O)O)n1cnc(NC(=O)c2ccccc2S(=O)(=O)O)c1` [Example 47] was 1 nM; that for `CCCCCC[C@H](C(=O)N1C[C@@H](Oc2ccc(SC)cc2)C[C@H]1C(=O)O)n1cnc(NC(=O)c2ccccc2S(=O)(=O)O)c1` [Example 30] was 0.631 nM; that for `CCCCCC[C@H](C(=O)N1C[C@@H](Oc2ccc(OC)cc2)C[C@H]1C(=O)O)n1cnc(NC(=O)c2ccccc2-c2nn[nH]n2)c1` [Example 75] was 1 nM.
For `CCCCCC[C@H](C(=O)N1C[C@@H](Oc2ccc(OC(C)(C)C(=O)O)cc2)C[C@H]1C(=O)O)n1cnc(NC(=O)c2ccccc2S(=O)(=O)O)c1` [Example 58], the Kb is 0.794 nM.
With `CCCCCC[C@H](C(=O)N1C[C@@H](Oc2ccc(OC)cc2)C[C@H]1C(=O)O)n1cnc(NC(=O)c2cccc(O)c2C(=O)O)c1` [Example 82], the Kb is 0.316 nM.
On the same count and under the same terms, then `CCCCCC[C@H](C(=O)N1C[C@@H](Oc2ccc(OC)c(OC)c2)C[C@H]1C(=O)O)n1cnc(NC(=O)c2ccccc2S(=O)(=O)O)c1` [Example 60], with 15.8 nM; and `CCCCCC[C@H](C(=O)N1C[C@@H](Oc2ccc(C(=O)O)cc2)C[C@H]1C(=O)O)n1cnc(NC(=O)c2ccccc2S(=O)(=O)O)c1` [Example 33], with 1 nM; and `CCCCCC[C@H](C(=O)N1C[C@@H](Oc2ccc(C(=O)O)cc2)C[C@H]1C(=O)O)n1cnc(NC(=O)c2ccccc2-c2nn[nH]n2)c1` [Example 78], with 3.16 nM.
Turning to `CCCCCCC(C(=O)N1C[C@@H](Oc2ccc(O)cc2)C[C@H]1C(=O)O)n1cnc(NC(=O)c2ccccc2S(=O)(=O)O)c1` (single isomer, unassigned) [Example 19], the Kb was 1.26 nM.
The same measure, in the same setting: the value for `CCCCCC[C@H](C(=O)N1C[C@@H](Oc2ccc3ccc(OC)cc3c2)C[C@H]1C(=O)O)n1cnc(NC(=O)c2ccccc2S(=O)(=O)O)c1` [Example 62] was 1 nM; that for `CCCCCC[C@H](C(=O)N1C[C@@H](Oc2ccc(C(N)=O)cc2)C[C@H]1C(=O)O)n1cnc(NC(=O)c2ccccc2S(=O)(=O)O)c1` [Example 34] was 3.16 nM.
The same measure, in the same setting: then `CCCCCC[C@H](C(=O)N1C[C@@H](Oc2ccc3ccccc3c2)C[C@H]1C(=O)O)n1cnc(NC(=O)c2cccc(O)c2C(=O)O)c1` [Example 89], with 31.6 nM; and `CCCCCC[C@H](C(=O)N1C[C@@H](Oc2ccc3c(c2)OCO3)C[C@H]1C(=O)O)n1cnc(NC(=O)c2ccccc2S(=O)(=O)O)c1` [Example 59], with 0.631 nM.
On the same count and under the same terms, then `CCCCCC[C@H](C(=O)N1C[C@@H](Oc2ccc(CCP(=O)(O)O)cc2)C[C@H]1C(=O)O)n1cnc(NC(=O)c2ccccc2S(=O)(=O)O)c1` [Example 42], with 1.26 nM; and `CCCCCC[C@H](C(=O)N1C[C@@H](Oc2ccc(CC)cc2)C[C@H]1C(=O)O)n1cnc(NC(=O)c2ccccc2S(=O)(=O)O)c1` [Example 23], with 1.58 nM; and `CCCCCC[C@H](C(=O)N1C[C@@H](Oc2ccc(OCC(=O)O)cc2)C[C@H]1C(=O)O)n1cnc(NC(=O)c2ccccc2-c2nn[nH]n2)c1` [Example 79], with 0.501 nM.
Regarding `CCCCCC[C@H](C(=O)N1C[C@@H](Oc2ccc(OC(C)(C)C)cc2)C[C@H]1C(=O)O)n1cnc(NC(=O)c2ccccc2-c2nn[nH]n2)c1` [Example 76], the Kb is 31.6 nM.
Same read-out and setting: then `CCCCCC[C@H](C(=O)N1C[C@@H](Oc2ccc(C(C)C)cc2)C[C@H]1C(=O)O)n1cnc(NC(=O)c2ccccc2S(=O)(=O)O)c1` [Example 24], with 25.1 nM; and `CCCCCC[C@H](C(=O)N1C[C@@H](Oc2ccc3ccccc3c2)C[C@H]1C(=O)O)n1cnc(NC(=O)c2ccccc2S(=O)(=O)O)c1` [Example 61], with 3.16 nM.
On to `CCCCCC[C@H](C(=O)N1C[C@@H](Oc2ccc3oc4ccccc4c3c2)C[C@H]1C(=O)O)n1cnc(NC(=O)c2ccccc2S(=O)(=O)O)c1` [Example 71], for which the Kb is 25.1 nM.
On the same count and under the same terms, then `CCCCCC[C@H](C(=O)N1C[C@@H](Oc2ccc(-c3ccccc3)cc2)C[C@H]1C(=O)O)n1cnc(NC(=O)c2ccccc2S(=O)(=O)O)c1` [Example 27], with 10 nM.
Take `CCCCCC[C@H](C(=O)N1C[C@@H](Oc2ccc(O)cc2)C[C@H]1C(=O)O)n1cnc(NC(=O)c2cccc(O)c2C(=O)O)c1` [Example 81]: the Kb is 1.58 nM.
